SMILES strings stand for the structures.

Test [1] relates to WTB and WTC hPSCs. Put plainly: WNT activation (CHIR 99021) during V2a interneuron differentiation, flow cytometry of CHX10. Particulars: 2 μM CHIR99021 pretreatment two days and first 7 days of protocol, compared to untreated (UT) controls. It is filed as cell-based, human. The method, then: To examine pretreatment effects of WNT, hiPSCs were plated onto a Matrigel-coated 24-well plate at 125,000 cells/cm^2 in mTeSR supplemented with 10 μM ROCK inhibitor and 2 μM CHIR99021. Two days later, the cell layers were dissociated with Accutase and the differentiation was performed as described above with the addition of 2 μM CHIR99021. The CHIR99021 treatment was continued until day 7.
For orientation: Flow cytometry measures light scatter and fluorescence of single cells or particles in a stream.

The subject of test [2] is hPSCs. Put plainly: Monolayer hindbrain differentiation with varied pur or RA concentration, flow cytometry of CHX10 and LHX5. The format is cell-based, human. The method, then:
hPSCs were seeded in mTeSR supplemented with 10 μM ROCK inhibitor and dual SMAD inhibitors 0.2 μM LDN193189 and 10 μM SB431542 (StemGent, Cambridge, MA) at 5,000-100,000 cells/cm^2 onto 24-well plates coated with Matrigel. On day 3, medium was changed to m TeSR supplemented with dual SMAD inhibitors only. On day 5, the base medium was switched to neural induction medium (DMEM F: 12 (Corning, Corning, NY), N2 supplement (Life Technologies, Carlsbad, CA), L-Glutamine (VWR), 2 μg/ml heparin (Sigma Aldrich, St. Louis, MO), non-essential amino acids (Mediatech INC, Manassas, VA), penicillin-streptomycin (VWR) supplemented with fresh 0.4 ug/ml ascorbic acid (Sigma Aldrich) and 10 ng/ml brain derived neurotrophin factor (BDNF, R&D Systems, Minneapolis, MN)) supplemented with dual SMAD inhibitors and 10 nM-10 μM retinoic acid (Sigma Aldrich). On day 7, dual SMAD inhibition was ceased and 10 nM-10 μM retinoic acid, 10 nM-10 μM pur (EMD Millipore, Darmstast, Germany) and 1 μM N—[N-(3,5-difluorophenacetyl)-L-alanyl]-S-phenylglycine t-butyl ester (DAPT) were added to the neural induction medium. Medium was changed every 2-3 days throughout the differentiation, with fresh supplements added each time for up to 17 days.
At day 17 of differentiation, cells were completely dissociated as described in 3.3.3 and stained with the Transcription Factor Buffer Set, which includes a fixation/permeabilization (FP) and wash/permeabilization (WP) buffer (BD Biosciences, Franklin Lakes, NJ). Dissociated samples were first fixed for 45 minutes at 4° C. in the FP buffer followed by a 20-minute block with WP buffer containing 5% normal donkey serum (NDS, Jackson Laboratory, Bay Harbor, ME). Primary antibodies against CHX10, LHX5, PHOX2A, and PHOX2B (Table 1) and the proper matching species isotype control were added into WP buffer containing 2% NDS and incubated at 4° C. for 45 minutes. After two washes with WP buffer, secondary antibodies donkey anti-mouse IgG, ALEXA FLUOR™ 488 (a fluorescent compound; Life Technologies), at a dilution of 1:200, were added to WP buffer and incubated at 4° C. for 45 minutes. After two washes with WP buffer, samples were passed through a 35-μm filter before assessing with a BD ACCURI™ C6 (BD) cytometer (minimum 10,000 events). Cytometry analysis was performed using FlowJo V10 (Flowjo, Ashland, OR).

The test system of test [3] is organoids. The test can be described thus: Calcium imaging of maturing organoids (Ca^2+ fluctuations). The format is cell-based, human. Particulars: day 33 onward. On the procedure:
On day 17 of differentiation, organoids were switched to neural maturation medium (BRAINPHYS™ (neurophysiological basal medium) plus SM1 supplement (Stemcell Technologies (Bardy, van den Hurk et al. 2016)) supplemented with 10 ng/ml of BDNF, GDNF, CNTF, and IGF, R&D Systems). Medium was completely changed every 5 days for the remainder of the culture duration.
Endogenous GCaMP6 signal was used to detect calcium flux in differentiations performed with the WTC GCaMP6 cell line. Alternatively, cultures of cells that lacked GCaMP expression were washed with PBS and the medium was replaced with NEUROBASAL™ (neural cell culture medium) plus Fluo4 AM (5 μM, Life Technologies) for 1 hour at 37° C. The cultures were then washed with fresh Neurobasal and allowed to recover for an additional […] at 37° C. before recording on a Zeiss Axio Observer. To assess Ca^2+ fluctuations, cultures were imaged at a rate of 17 frames per second. To analyze the results, ROI were selected by hand using Zen software. For organoids, the outer edge of the tissue was selected and for monolayer cultures, individual neurons were selected. The relative fluorescent units (RFU) measured at the ROIs were processed using Python3. A detrend function with a robust linear regression was performed for normalization and a 4 Hz lowpass Butterworth filter was applied to minimize noise.

Test [4] relates to Human PSCs (organoids). Put plainly: 3D organoid hindbrain differentiation, flow cytometry of CHX10, LHX5, PHOX2A, PHOX2B at day 17. The format is cell-based. The method, then: Human PSCs were seeded at 125 k cells/cm^2 in mTeSR supplemented with 10 μM ROCK inhibitor and 2 μM CHIR99102. For WNT treated cells, CHIR was supplemented into the media at each feed through day 7. 48 hours later, cell layers were dissociated using Accutase and counted. For organoid culture, 800 μm pyramidal PDMS inserts were placed into 24-well plates. 1 ml mTeSR containing 10 μM ROCK inhibitor was added to the wells containing the molds and the plate was centrifuged at 2,000×g for 3 minutes to get rid of any bubbles. Dissociated cells, either hPSCs or WNT pre-treated cells, were then added slowly into the wells at 10,000 cells per organoid in mTeSR supplemented with 10 μM ROCK inhibitor, 0.2 LDN193189, and 10 μM SB431542 ([…], Cambridge, MA). […] To change the media on the cells for the rest of the differentiation, the organoids were pipetted into a conical and allowed to settle. Old media was aspirated off and new media was used to resuspend the organoids and transfer them back to the 6 well. On day 3, medium was changed to mTeSR supplemented with dual SMAD inhibitors only. […] To dissociate organoid cultures, samples were collected and washed with 1 mL of PBS. The organoids were then transferred to 1 well of a 6-well plate with 2 ml of accutase and incubated on the rotary at 37° C. for 15 minutes. […] The dissociated cells were then transpired to a 15 mL conical and diluted with 3 times the volume of PBS.

Test [5] deals with Human PSCs (organoids). The test can be described thus: Organoid diameter from phase contrast images. The format is cell-based. The method, then: Human PSCs were seeded at 125 k cells/cm^2 in mTeSR supplemented with 10 μM ROCK inhibitor and 2 μM CHIR99102. For WNT treated cells, CHIR was supplemented into the media at each feed through day 7. 48 hours later, cell layers were dissociated using Accutase and counted. For organoid culture, 800 μm pyramidal PDMS inserts were placed into 24-well plates. 1 ml mTeSR containing 10 μM ROCK inhibitor was added to the wells containing the molds and the plate was centrifuged at 2,000×g for 3 minutes to get rid of any bubbles. Dissociated cells, either hPSCs or WNT pre-treated cells, were then added slowly into the wells at 10,000 cells per organoid in mTeSR supplemented with 10 μM ROCK inhibitor, 0.2 LDN193189, and 10 μM SB431542 ([…], Cambridge, MA). […] To change the media on the cells for the rest of the differentiation, the organoids were pipetted into a conical and allowed to settle. Old media was aspirated off and new media was used to resuspend the organoids and transfer them back to the 6 well. On day 3, medium was changed to mTeSR supplemented with dual SMAD inhibitors only. […] Phase contrast images of the organoids were taken using the EVOS® FL Imaging System. The size analysis performed in FIG. 12 was performed manually using Image J. The size analysis performed in FIG. 13 was done using a Python script to first segment the organoids using a watershed segmentation algorithm. […]

Setting [6] is: pur 100 nM and RA 100 nM, day 17 (FIG. 12F).

Take `Cc1cnc(-c2cnc(NCCNc3ccc(C#N)cn3)nc2-c2ccc(Cl)cc2Cl)[nH]1` [CHIR 99021, 6-[[2-[[4-(2,4-Dichlorophenyl)-5-(5-methyl-1H-imidazol-2-yl)-2-pyrimidinyl]amino]ethyl]amino]-3-pyridinecarbonitrile]: the CHX10 percentage result in test [1] was “increased”.

Consider `CC1=C(/C=C/C(C)=C/C=C/C(C)=C/C(=O)O)C(C)(C)CCC1` [RA, retinoic acid], for which, in test [2] (pur constant at 100 nM), the “RA concentration at which CHX10 percentage peaked” value lay within 30 to 100 nM and the “RA concentration at which LHX5 percentage peaked” value worked out at 10 nM.

With `c1ccc2c(Oc3nc(Nc4ccc(N5CCOCC5)cc4)c4ncn(C5CCCCC5)c4n3)cccc2c1` [pur, 9-Cyclohexyl-N-[4-(4-morpholinyl)phenyl]-2-(1-naphthalenyloxy)-9H-purin-6-amine], the LHX5 percentage result in test [2] (at 10 and 30 nM pur compared to 100 nM pur, RA kept at 100 nM, p<0.05) is “increased”. The CHX10 percentage entry in test [2] (at 30 and 100 nM pur, RA kept at 100 nM, p<0.05) is “greater”. Also, the “periodic synchronous Ca^2+ fluctuations” value in test [3] (organoids differentiated with 10 nM pur (V0^lowV2a^low)) was “few periodic synchronous events”. Also, the “periodic synchronous Ca^2+ fluctuations” value in test [3] (organoids differentiated with 100 nM pur (V0^highV2a^low)) is recorded as “more rhythmic overall”. Further, in test [3] (organoids differentiated with 1 μM pur (V0^lowV2a^high)), the “periodic synchronous Ca^2+ fluctuations” value is “more sporadic”. The “percentages of V2a, V0 and chemosensing subtypes” value in test [4] (10 nM pur, day 17 (FIG. 13D)) is “low percentages of all subtypes”. For the same molecule, the “PHOX2A and PHOX2B percentages” value in test [4] (100 nM and 1 μM pur condition versus 10 nM, day 17) is on record as “highest”. For the same molecule, in test [4] (100 nM pur, day 17 (FIG. 13D)), the “percentage of CHX10 positive cells” value amounted to 3.5% and the “percentage of LHX5 positive cells” value was 36.5%. For the same molecule, in test [4] (1 μM pur, day 17 (FIG. 13D)), the “percentage of CHX10 positive cells” value worked out at 23.3% and the “percentage of LHX5 positive cells” value is given as 3.1%. Further, in test [4] (setting [6]), the “percentage of CHX10^+ cells” value was under 5%, the “percentage of LHX5^+ cells” value is about 80%, the “percentage of PHOX2A^+ cells” value is under 5% and the “percentage of PHOX2B^+ cells” value is given as under 5%. The organoid diameter in test [5] (10 nM and 100 nM pur groups, throughout the differentiation) was about 500 μm. Besides, in test [5] (1 μM pur group, by day 17), the organoid diameter entry is on record as “approximately 700 μm”.

For the origin of these results see patent publication US12577530B2, “Generation of a population of hindbrain cells and hindbrain-like organoids from pluripotent stem cells” (The Regents of the University of California, priority 2018, dated 2026).
